Reference: the NIST ThermoML archive (doi:10.1021/je050509f)

Test: mn = molality of the nth substance listed, in mol/kg
Settings: Liquid, Vibrating tube method

[Cl-].[Cl-].[Zn+2] [zinc chloride] + CO
Settings	mass density [kg/m3]
348.27 K, 19998 kPa, m1 = 0.1348	775.25
348.27 K, 20001 kPa, m1 = 5.367	1160.36
348.27 K, 20003 kPa, m1 = 1.039	851.34
348.27 K, 24987 kPa, m1 = 1.977	930.28
348.27 K, 24989 kPa, m1 = 0.8018	837.48
348.27 K, 24994 kPa, m1 = 0.1348	780.25
348.27 K, 24994 kPa, m1 = 1.039	856.19
348.27 K, 24996 kPa, m1 = 0.4768	810.44
348.27 K, 25001 kPa, m1 = 5.367	1164.74
348.27 K, 29985 kPa, m1 = 0.4768	815.14
348.27 K, 29987 kPa, m1 = 0.8018	842.17
348.27 K, 29990 kPa, m1 = 1.977	934.86
348.27 K, 29998 kPa, m1 = 0.1348	785.01
348.27 K, 30011 kPa, m1 = 5.367	1169.01
348.27 K, 30014 kPa, m1 = 1.039	860.81
348.27 K, 34985 kPa, m1 = 1.977	939.27
348.27 K, 34987 kPa, m1 = 0.4768	819.64
348.27 K, 34988 kPa, m1 = 0.8018	846.66
348.27 K, 34990 kPa, m1 = 1.039	865.23
348.27 K, 34990 kPa, m1 = 5.367	1173.15
348.27 K, 34998 kPa, m1 = 0.1348	789.52
348.27 K, 39984 kPa, m1 = 5.367	1177.19
348.27 K, 39991 kPa, m1 = 1.039	869.48
348.27 K, 39993 kPa, m1 = 1.977	943.53
348.27 K, 39998 kPa, m1 = 0.1348	793.81
348.27 K, 39999 kPa, m1 = 0.8018	850.97
348.27 K, 40007 kPa, m1 = 0.4768	823.94
373.3 K, 523 kPa, m1 = 0.8018	783.25
373.3 K, 527 kPa, m1 = 0.4768	755.9
373.3 K, 527 kPa, m1 = 1.977	876.84
373.3 K, 533 kPa, m1 = 0.1348	725.48
373.3 K, 535 kPa, m1 = 5.367	1112.11
373.3 K, 536 kPa, m1 = 1.039	802.51
373.3 K, 4986 kPa, m1 = 5.367	1117.02
373.3 K, 4988 kPa, m1 = 1.039	808.88
373.3 K, 4990 kPa, m1 = 0.4768	762.64
373.3 K, 4994 kPa, m1 = 0.8018	789.83
373.3 K, 4995 kPa, m1 = 0.1348	732.41
373.3 K, 5003 kPa, m1 = 1.977	882.85
373.3 K, 9984 kPa, m1 = 0.4768	769.58
373.3 K, 9984 kPa, m1 = 0.8018	796.61
373.3 K, 9985 kPa, m1 = 0.1348	739.51
373.3 K, 9986 kPa, m1 = 1.977	889.12
373.3 K, 9995 kPa, m1 = 1.039	815.55
373.3 K, 10002 kPa, m1 = 5.367	1122.33
373.3 K, 14985 kPa, m1 = 0.4768	776
373.3 K, 14990 kPa, m1 = 5.367	1127.43
373.3 K, 15001 kPa, m1 = 0.1348	746.08
373.3 K, 15005 kPa, m1 = 0.8018	802.94
373.3 K, 15009 kPa, m1 = 1.039	821.76
373.3 K, 15009 kPa, m1 = 1.977	895.06
373.3 K, 19986 kPa, m1 = 0.1348	752.14
373.3 K, 19987 kPa, m1 = 0.4768	781.98
373.3 K, 20001 kPa, m1 = 1.039	827.53
373.3 K, 20005 kPa, m1 = 0.8018	808.85
373.3 K, 20008 kPa, m1 = 5.367	1132.37
373.3 K, 20012 kPa, m1 = 1.977	900.64
373.3 K, 24985 kPa, m1 = 0.4768	787.59
373.3 K, 24989 kPa, m1 = 1.039	832.97
373.3 K, 24990 kPa, m1 = 0.8018	814.38
373.3 K, 24992 kPa, m1 = 0.1348	757.83
373.3 K, 25001 kPa, m1 = 1.977	905.94
373.3 K, 25001 kPa, m1 = 5.367	1137.12
373.3 K, 29985 kPa, m1 = 0.1348	763.18
373.3 K, 29988 kPa, m1 = 1.977	910.98
373.3 K, 29993 kPa, m1 = 1.039	838.14
373.3 K, 29994 kPa, m1 = 5.367	1141.72
373.3 K, 29997 kPa, m1 = 0.8018	819.65
373.3 K, 30012 kPa, m1 = 0.4768	792.89
373.3 K, 34983 kPa, m1 = 0.8018	824.61
373.3 K, 34984 kPa, m1 = 1.039	843.03
373.3 K, 34986 kPa, m1 = 5.367	1146.17
373.3 K, 34987 kPa, m1 = 0.4768	797.89
373.3 K, 34997 kPa, m1 = 1.977	915.82
373.3 K, 35008 kPa, m1 = 0.1348	768.23
373.3 K, 39990 kPa, m1 = 1.039	847.71
373.3 K, 39991 kPa, m1 = 0.8018	829.37
373.3 K, 39993 kPa, m1 = 0.1348	773.04
373.3 K, 39995 kPa, m1 = 5.367	1150.53
373.3 K, 39997 kPa, m1 = 1.977	920.45
373.3 K, 40000 kPa, m1 = 0.4768	802.68
398.33 K, 893 kPa, m1 = 0.1348	695.88
398.33 K, 899 kPa, m1 = 5.367	1083.75
398.33 K, 904 kPa, m1 = 1.039	773.5
398.33 K, 905 kPa, m1 = 1.977	848.36
398.33 K, 907 kPa, m1 = 0.8018	754.11
398.33 K, 908 kPa, m1 = 0.4768	726.55
398.33 K, 4981 kPa, m1 = 0.4768	734.09
398.33 K, 4985 kPa, m1 = 1.977	854.8
398.33 K, 4988 kPa, m1 = 0.8018	761.4
398.33 K, 4994 kPa, m1 = 0.1348	703.77
398.33 K, 5002 kPa, m1 = 5.367	1088.78
398.33 K, 5004 kPa, m1 = 1.039	780.59
398.33 K, 9983 kPa, m1 = 0.4768	742.44
398.33 K, 9984 kPa, m1 = 0.1348	712.39
398.33 K, 9984 kPa, m1 = 0.8018	769.52
398.33 K, 9988 kPa, m1 = 5.367	1094.64
398.33 K, 9993 kPa, m1 = 1.039	788.48
398.33 K, 9999 kPa, m1 = 1.977	862.15
398.33 K, 14985 kPa, m1 = 1.039	795.7
398.33 K, 14988 kPa, m1 = 0.1348	720.18
398.33 K, 14993 kPa, m1 = 0.4768	750.05
398.33 K, 14994 kPa, m1 = 0.8018	776.95
398.33 K, 15018 kPa, m1 = 5.367	1100.25
398.33 K, 15019 kPa, m1 = 1.977	868.94
398.33 K, 19982 kPa, m1 = 0.8018	783.77
398.33 K, 19982 kPa, m1 = 1.039	802.38
398.33 K, 19984 kPa, m1 = 0.1348	727.3
398.33 K, 19994 kPa, m1 = 0.4768	757.02
398.33 K, 19996 kPa, m1 = 1.977	875.28
398.33 K, 20003 kPa, m1 = 5.367	1105.62
398.33 K, 24984 kPa, m1 = 1.039	808.61
398.33 K, 24989 kPa, m1 = 5.367	1110.77
398.33 K, 24992 kPa, m1 = 0.4768	763.47
398.33 K, 25003 kPa, m1 = 0.1348	733.89
398.33 K, 25006 kPa, m1 = 0.8018	790.16
398.33 K, 25009 kPa, m1 = 1.977	881.23
398.33 K, 29990 kPa, m1 = 1.977	886.89
398.33 K, 29994 kPa, m1 = 0.8018	796.1
398.33 K, 29996 kPa, m1 = 0.1348	740.01
398.33 K, 29996 kPa, m1 = 1.039	814.47
398.33 K, 29999 kPa, m1 = 5.367	1115.75
398.33 K, 30005 kPa, m1 = 0.4768	769.51
398.33 K, 34992 kPa, m1 = 0.4768	775.14
398.33 K, 34993 kPa, m1 = 0.1348	745.75
398.33 K, 35003 kPa, m1 = 5.367	1120.56
398.33 K, 35010 kPa, m1 = 1.039	819.97
398.33 K, 35011 kPa, m1 = 0.8018	801.72
398.33 K, 35014 kPa, m1 = 1.977	892.27
398.33 K, 39988 kPa, m1 = 1.977	897.37
398.33 K, 39989 kPa, m1 = 0.1348	751.12
398.33 K, 39992 kPa, m1 = 0.8018	807.01
398.33 K, 39994 kPa, m1 = 5.367	1125.22
398.33 K, 39997 kPa, m1 = 1.039	825.19
398.33 K, 40002 kPa, m1 = 0.4768	780.53
